Results: patent US6670362B2, “Pyridazine endothelin antagonists” (Pfizer Inc., priority 2000, dated 2003)

Key:
[1] = test system: ETA/B receptor; conditions: hypertensive patients; H. Krum et al., 1998; cited from earlier work
[2] = test system: neointimal formation; conditions: S. Douglas et al., Circ. Res., 1994; cited from earlier work
[3] = target: T1, dog ETA receptor (Canis lupus familiaris, UniProt Q5KSU9); assay: Dog ETA Binding Assay (125I-PD-151242, dog kidney homogenate)
T1 construct: 100 μg of purified dog kidney homogenate is added; from tissue; host or cells: dog kidney homogenate
T1 sequence (Q5KSU9 21-426): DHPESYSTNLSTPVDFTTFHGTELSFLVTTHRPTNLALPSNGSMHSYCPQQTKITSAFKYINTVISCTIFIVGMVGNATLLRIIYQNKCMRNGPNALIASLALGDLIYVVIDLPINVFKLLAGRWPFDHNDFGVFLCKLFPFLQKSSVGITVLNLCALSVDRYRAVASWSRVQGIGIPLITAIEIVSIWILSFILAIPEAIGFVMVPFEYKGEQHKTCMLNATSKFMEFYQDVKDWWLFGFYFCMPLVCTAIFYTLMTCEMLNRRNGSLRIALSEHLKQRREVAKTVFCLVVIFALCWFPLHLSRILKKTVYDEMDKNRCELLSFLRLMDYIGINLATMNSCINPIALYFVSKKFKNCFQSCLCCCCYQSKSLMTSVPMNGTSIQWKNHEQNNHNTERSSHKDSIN
Description: (§1) Competition between test substances and ligands binding to canine endothelin receptors is determined as follows: […] The solution is incubated at room temperature for 2 hours. After the incubation, the unbound ligand is separated from receptor bound ligand by filtration with a Brandel cell harvester, followed by 5 washes with buffer (Tris 50 mM, MgCl2 10 mM). Filter papers are counted for radioactivity and the Ki (an IC50 corrected for the dissociation constant and concentration of the ligand added) is determined for the concentration range tested.

[4] = target: T2, dog ETB (Canis lupus familiaris, UniProt P56497); assay: Dog ETB Binding Assay (125I-IRL-1620, dog cerebellum homogenate)
T2 construct: 50 μg of purified Dog cerebellum homogenate is added; from tissue; host or cells: dog cerebellum homogenate
T2 sequence (P56497 27-442): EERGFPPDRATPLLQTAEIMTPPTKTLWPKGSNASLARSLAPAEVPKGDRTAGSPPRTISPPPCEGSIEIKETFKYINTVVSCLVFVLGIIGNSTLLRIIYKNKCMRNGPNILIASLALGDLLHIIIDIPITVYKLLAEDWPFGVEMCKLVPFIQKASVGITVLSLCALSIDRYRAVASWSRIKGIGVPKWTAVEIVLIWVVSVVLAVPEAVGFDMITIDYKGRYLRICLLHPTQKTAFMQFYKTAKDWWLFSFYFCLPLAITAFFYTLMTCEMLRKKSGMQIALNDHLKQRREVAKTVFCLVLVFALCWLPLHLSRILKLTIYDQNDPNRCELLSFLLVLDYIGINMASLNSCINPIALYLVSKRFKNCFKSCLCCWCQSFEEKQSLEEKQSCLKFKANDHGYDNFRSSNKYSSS
Description: as §1, with “30° C.” for “room temperature”, “90 minutes.” for “2 hours.”

[5] = target: T3, ETB receptors (Homo sapiens, UniProt P24530); conditions: in man; Hypertension, 1999, 33, 581-585; cited from earlier work
T3 construct: host or cells: man (in vivo)
T3 sequence (P24530 27-442): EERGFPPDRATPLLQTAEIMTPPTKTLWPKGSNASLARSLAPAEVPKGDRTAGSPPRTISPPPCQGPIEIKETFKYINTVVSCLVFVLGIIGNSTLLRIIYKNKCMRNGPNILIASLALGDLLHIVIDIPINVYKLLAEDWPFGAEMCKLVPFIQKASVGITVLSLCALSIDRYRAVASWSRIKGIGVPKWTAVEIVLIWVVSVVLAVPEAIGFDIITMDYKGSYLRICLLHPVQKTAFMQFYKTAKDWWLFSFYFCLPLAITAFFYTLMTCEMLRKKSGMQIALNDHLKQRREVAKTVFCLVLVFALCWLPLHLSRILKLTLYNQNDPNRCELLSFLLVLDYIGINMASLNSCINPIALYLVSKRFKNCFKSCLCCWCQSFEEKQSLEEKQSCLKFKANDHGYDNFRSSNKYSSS

Structure (SMILES): COc1ccccc1Oc1c(NS(=O)(=O)c2ccc(C(C)(C)C)cc2)nc(-c2ncccn2)nc1OCCO [Bosentan]
- blood pressure [1]: decreased blood pressure

Structure (SMILES): CCCOc1ccc2c(c1)[C@@H](c1ccc(OC)cc1OCC(=O)O)[C@H](C(=O)O)[C@H]2c1ccc2c(c1)OCO2 [SB-209670]
- reduction in neointimal formation relative to control animals [2]: 50%

Structure (SMILES): COc1ccccc1Oc1c(NS(=O)(=O)CCc2ccccc2)nc(-c2cccnn2)nc1OC [Example 5]
- Ki [3]: 2 nM
- Ki [4]: 132 nM

Structure (SMILES): CCCC[C@@H](NC(=O)[C@@H](Cc1cn(C(=O)OC)c2ccccc12)NC(=O)[C@H](CC(C)(C)C)NC(=O)N1[C@H](C)CCC[C@@H]1C)C(=O)O [BQ-788]
- peripheral resistance [5]: increase peripheral resistance
